Experimental data from the supplement of paper PMC10307832.

How the values were obtained:
Assay in all cases: relative viability (nuclei count vs DMSO), 5 days (fraction); higher = more cells survive
Tipifarnib + Bortezomib = compound: Cn1cncc1[C@@](N)(c1ccc(Cl)cc1)c1ccc2c(c1)c(-c1cccc(Cl)c1)cc(=O)n2C [Tipifarnib] + CC(C)C[C@H](NC(=O)[C@H](Cc1ccccc1)NC(=O)c1cnccn1)B(O)O [Bortezomib] (partner 0.002 µM)
Procedure, shortened: (§1)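 After 5 days of treatment, lung cancer cells in 1536-well plates were fixed and stained in a single step (final 0.05% Triton X-100, 1% formaldehyde, 1 ug/ml Hoechst) and their nuclei counted on 4× images. Treatment had been applied by pin tool the day after seeding as one drug alone or as a fixed anchor-drug dose with five library-drug doses (not always all listed) in √10 steps. Relative viability is the nuclei count of treated wells divided by that of vehicle wells, and values are medians of duplicate plates.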

Tipifarnib + Lapatinib = compound: Cn1cncc1[C@@](N)(c1ccc(Cl)cc1)c1ccc2c(c1)c(-c1cccc(Cl)c1)cc(=O)n2C [Tipifarnib] + CS(=O)(=O)CCNCc1ccc(-c2ccc3ncnc(Nc4ccc(OCc5cccc(F)c5)c(Cl)c4)c3c2)o1 [Lapatinib] (partner 2 µM)
Procedure, shortened: as §1

Tipifarnib + AZD7762 = compound: Cn1cncc1[C@@](N)(c1ccc(Cl)cc1)c1ccc2c(c1)c(-c1cccc(Cl)c1)cc(=O)n2C [Tipifarnib] + NC(=O)Nc1cc(-c2cccc(F)c2)sc1C(=O)N[C@H]1CCCNC1 [AZD7762] (partner 0.2 µM)
Procedure, shortened: as §1

Tipifarnib + Decitabine = compound: Cn1cncc1[C@@](N)(c1ccc(Cl)cc1)c1ccc2c(c1)c(-c1cccc(Cl)c1)cc(=O)n2C [Tipifarnib] + Nc1ncn([C@H]2C[C@H](O)[C@@H](CO)O2)c(=O)n1 [Decitabine] (partner 2 µM)
Procedure, shortened: as §1

HCC-827
relative viability (Tipifarnib + Bortezomib; first compound 0.01 µM): 0.975
relative viability (Tipifarnib + Bortezomib; first compound 0.03162 µM): 0.955
relative viability (Tipifarnib + Bortezomib; first compound 0.1 µM): 0.858
relative viability (Tipifarnib + Bortezomib; first compound 0.3162 µM): 0.68
relative viability (Tipifarnib + Bortezomib; first compound 1 µM): 0.68
relative viability (Tipifarnib + Lapatinib; first compound 0.01 µM): 0.184
relative viability (Tipifarnib + Lapatinib; first compound 0.03162 µM): 0.208
relative viability (Tipifarnib + Lapatinib; first compound 0.1 µM): 0.152
relative viability (Tipifarnib + Lapatinib; first compound 0.3162 µM): 0.186
relative viability (Tipifarnib + Lapatinib; first compound 1 µM): 0.172
relative viability (Tipifarnib + AZD7762; first compound 0.01 µM): 0.236
relative viability (Tipifarnib + AZD7762; first compound 0.03162 µM): 0.287
relative viability (Tipifarnib + AZD7762; first compound 0.1 µM): 0.206
relative viability (Tipifarnib + AZD7762; first compound 0.3162 µM): 0.207
relative viability (Tipifarnib + AZD7762; first compound 1 µM): 0.178
relative viability (Tipifarnib + Decitabine; first compound 0.01 µM): 0.324
relative viability (Tipifarnib + Decitabine; first compound 0.03162 µM): 0.333
relative viability (Tipifarnib + Decitabine; first compound 0.1 µM): 0.293
relative viability (Tipifarnib + Decitabine; first compound 0.3162 µM): 0.293
relative viability (Tipifarnib + Decitabine; first compound 1 µM): 0.259

HOP-62
relative viability (Tipifarnib + Bortezomib; first compound 0.01 µM): 1
relative viability (Tipifarnib + Bortezomib; first compound 0.03162 µM): 0.188
relative viability (Tipifarnib + Bortezomib; first compound 0.1 µM): 0.222
relative viability (Tipifarnib + Bortezomib; first compound 0.3162 µM): 0.275
relative viability (Tipifarnib + Bortezomib; first compound 1 µM): 0.281
relative viability (Tipifarnib + Lapatinib; first compound 0.01 µM): 0.841
relative viability (Tipifarnib + Lapatinib; first compound 0.03162 µM): 0.301
relative viability (Tipifarnib + Lapatinib; first compound 0.1 µM): 0.454
relative viability (Tipifarnib + Lapatinib; first compound 0.3162 µM): 0.244
relative viability (Tipifarnib + Lapatinib; first compound 1 µM): 0.265
relative viability (Tipifarnib + AZD7762; first compound 0.01 µM): 0.573
relative viability (Tipifarnib + AZD7762; first compound 0.03162 µM): 0.169
relative viability (Tipifarnib + AZD7762; first compound 0.1 µM): 0.196
relative viability (Tipifarnib + AZD7762; first compound 0.3162 µM): 0.152
relative viability (Tipifarnib + AZD7762; first compound 1 µM): 0.261
relative viability (Tipifarnib + Decitabine; first compound 0.01 µM): 0.204
relative viability (Tipifarnib + Decitabine; first compound 0.03162 µM): 0.225
relative viability (Tipifarnib + Decitabine; first compound 0.1 µM): 0.196
relative viability (Tipifarnib + Decitabine; first compound 0.3162 µM): 0.254
relative viability (Tipifarnib + Decitabine; first compound 1 µM): 0.191

LC-2-ad
relative viability (Tipifarnib + Bortezomib; first compound 0.01 µM): 0.984
relative viability (Tipifarnib + Bortezomib; first compound 0.03162 µM): 0.486
relative viability (Tipifarnib + Bortezomib; first compound 0.1 µM): 0.491
relative viability (Tipifarnib + Bortezomib; first compound 0.3162 µM): 0.443
relative viability (Tipifarnib + Bortezomib; first compound 1 µM): 0.185
relative viability (Tipifarnib + Lapatinib; first compound 0.01 µM): 0.843
relative viability (Tipifarnib + Lapatinib; first compound 0.03162 µM): 0.592
relative viability (Tipifarnib + Lapatinib; first compound 0.1 µM): 0.367
relative viability (Tipifarnib + Lapatinib; first compound 0.3162 µM): 0.436
relative viability (Tipifarnib + Lapatinib; first compound 1 µM): 0.178
relative viability (Tipifarnib + AZD7762; first compound 0.01 µM): 0.813
relative viability (Tipifarnib + AZD7762; first compound 0.03162 µM): 0.68
relative viability (Tipifarnib + AZD7762; first compound 0.1 µM): 0.561
relative viability (Tipifarnib + AZD7762; first compound 0.3162 µM): 0.474
relative viability (Tipifarnib + AZD7762; first compound 1 µM): 0.359
relative viability (Tipifarnib + Decitabine; first compound 0.01 µM): 0.871
relative viability (Tipifarnib + Decitabine; first compound 0.03162 µM): 0.913
relative viability (Tipifarnib + Decitabine; first compound 0.1 µM): 0.77
relative viability (Tipifarnib + Decitabine; first compound 0.3162 µM): 0.802
relative viability (Tipifarnib + Decitabine; first compound 1 µM): 0.641

LCLC-97TM1
relative viability (Tipifarnib + Bortezomib; first compound 0.01 µM): 0.317
relative viability (Tipifarnib + Bortezomib; first compound 0.03162 µM): 0.582
relative viability (Tipifarnib + Bortezomib; first compound 0.1 µM): 0.404
relative viability (Tipifarnib + Bortezomib; first compound 0.3162 µM): 0.33
relative viability (Tipifarnib + Bortezomib; first compound 1 µM): 0.117
relative viability (Tipifarnib + Lapatinib; first compound 0.01 µM): 0.998
relative viability (Tipifarnib + Lapatinib; first compound 0.03162 µM): 1.02
relative viability (Tipifarnib + Lapatinib; first compound 0.1 µM): 0.554
relative viability (Tipifarnib + Lapatinib; first compound 0.3162 µM): 0.504
relative viability (Tipifarnib + Lapatinib; first compound 1 µM): 0.237
relative viability (Tipifarnib + AZD7762; first compound 0.01 µM): 0.179
relative viability (Tipifarnib + AZD7762; first compound 0.03162 µM): 0.225
relative viability (Tipifarnib + AZD7762; first compound 0.1 µM): 0.216
relative viability (Tipifarnib + AZD7762; first compound 0.3162 µM): 0.17
relative viability (Tipifarnib + AZD7762; first compound 1 µM): 0.0822
relative viability (Tipifarnib + Decitabine; first compound 0.01 µM): 0.242
relative viability (Tipifarnib + Decitabine; first compound 0.03162 µM): 0.242
relative viability (Tipifarnib + Decitabine; first compound 0.1 µM): 0.308
relative viability (Tipifarnib + Decitabine; first compound 0.3162 µM): 0.225
relative viability (Tipifarnib + Decitabine; first compound 1 µM): 0.205

LOU-NH91
relative viability (Tipifarnib + Bortezomib; first compound 0.01 µM): 0.436
relative viability (Tipifarnib + Bortezomib; first compound 0.03162 µM): 0.42
relative viability (Tipifarnib + Bortezomib; first compound 0.1 µM): 0.558
relative viability (Tipifarnib + Bortezomib; first compound 0.3162 µM): 0.534
relative viability (Tipifarnib + Bortezomib; first compound 1 µM): 0.457
relative viability (Tipifarnib + Lapatinib; first compound 0.01 µM): 0.794
relative viability (Tipifarnib + Lapatinib; first compound 0.03162 µM): 0.658
relative viability (Tipifarnib + Lapatinib; first compound 0.1 µM): 0.675
relative viability (Tipifarnib + Lapatinib; first compound 0.3162 µM): 0.669
relative viability (Tipifarnib + Lapatinib; first compound 1 µM): 0.499
relative viability (Tipifarnib + AZD7762; first compound 0.01 µM): 0.715
relative viability (Tipifarnib + AZD7762; first compound 0.03162 µM): 0.685
relative viability (Tipifarnib + AZD7762; first compound 0.1 µM): 0.636
relative viability (Tipifarnib + AZD7762; first compound 0.3162 µM): 0.625
relative viability (Tipifarnib + AZD7762; first compound 1 µM): 0.503
relative viability (Tipifarnib + Decitabine; first compound 0.01 µM): 0.804
relative viability (Tipifarnib + Decitabine; first compound 0.03162 µM): 0.791
relative viability (Tipifarnib + Decitabine; first compound 0.1 µM): 0.801
relative viability (Tipifarnib + Decitabine; first compound 0.3162 µM): 0.664
relative viability (Tipifarnib + Decitabine; first compound 1 µM): 0.738

LU99A
relative viability (Tipifarnib + Bortezomib; first compound 0.01 µM): 0.803
relative viability (Tipifarnib + Bortezomib; first compound 0.03162 µM): 0.712
relative viability (Tipifarnib + Bortezomib; first compound 0.1 µM): 0.477
relative viability (Tipifarnib + Bortezomib; first compound 0.3162 µM): 0.53
relative viability (Tipifarnib + Bortezomib; first compound 1 µM): 0.314
relative viability (Tipifarnib + Lapatinib; first compound 0.01 µM): 0.663
relative viability (Tipifarnib + Lapatinib; first compound 0.03162 µM): 0.583
relative viability (Tipifarnib + Lapatinib; first compound 0.1 µM): 0.461
relative viability (Tipifarnib + Lapatinib; first compound 0.3162 µM): 0.448
relative viability (Tipifarnib + Lapatinib; first compound 1 µM): 0.275
relative viability (Tipifarnib + AZD7762; first compound 0.01 µM): 0.277
relative viability (Tipifarnib + AZD7762; first compound 0.03162 µM): 0.272
relative viability (Tipifarnib + AZD7762; first compound 0.1 µM): 0.255
relative viability (Tipifarnib + AZD7762; first compound 0.3162 µM): 0.182
relative viability (Tipifarnib + AZD7762; first compound 1 µM): 0.224
relative viability (Tipifarnib + Decitabine; first compound 0.01 µM): 0.982
relative viability (Tipifarnib + Decitabine; first compound 0.03162 µM): 0.6
relative viability (Tipifarnib + Decitabine; first compound 0.1 µM): 0.481
relative viability (Tipifarnib + Decitabine; first compound 0.3162 µM): 0.456
relative viability (Tipifarnib + Decitabine; first compound 1 µM): 0.399

LXF-289
relative viability (Tipifarnib + Bortezomib; first compound 0.01 µM): 0.978
relative viability (Tipifarnib + Bortezomib; first compound 0.03162 µM): 0.889
relative viability (Tipifarnib + Bortezomib; first compound 0.1 µM): 0.948
relative viability (Tipifarnib + Bortezomib; first compound 0.3162 µM): 0.874
relative viability (Tipifarnib + Bortezomib; first compound 1 µM): 0.706
relative viability (Tipifarnib + Lapatinib; first compound 0.01 µM): 0.88
relative viability (Tipifarnib + Lapatinib; first compound 0.03162 µM): 0.865
relative viability (Tipifarnib + Lapatinib; first compound 0.1 µM): 0.855
relative viability (Tipifarnib + Lapatinib; first compound 0.3162 µM): 0.787
relative viability (Tipifarnib + Lapatinib; first compound 1 µM): 0.708
relative viability (Tipifarnib + AZD7762; first compound 0.01 µM): 1.08
relative viability (Tipifarnib + AZD7762; first compound 0.03162 µM): 1.12
relative viability (Tipifarnib + AZD7762; first compound 0.1 µM): 1.08
relative viability (Tipifarnib + AZD7762; first compound 0.3162 µM): 0.941
relative viability (Tipifarnib + AZD7762; first compound 1 µM): 0.347
relative viability (Tipifarnib + Decitabine; first compound 0.01 µM): 0.415
relative viability (Tipifarnib + Decitabine; first compound 0.03162 µM): 0.391
relative viability (Tipifarnib + Decitabine; first compound 0.1 µM): 0.429
relative viability (Tipifarnib + Decitabine; first compound 0.3162 µM): 0.348
relative viability (Tipifarnib + Decitabine; first compound 1 µM): 0.377

NCI-H23
relative viability (Tipifarnib + Bortezomib; first compound 0.01 µM): 1.27
relative viability (Tipifarnib + Bortezomib; first compound 0.03162 µM): 0.751
relative viability (Tipifarnib + Bortezomib; first compound 0.1 µM): 0.636
relative viability (Tipifarnib + Bortezomib; first compound 0.3162 µM): 0.36
relative viability (Tipifarnib + Bortezomib; first compound 1 µM): 0.25
relative viability (Tipifarnib + Lapatinib; first compound 0.01 µM): 1.4
relative viability (Tipifarnib + Lapatinib; first compound 0.03162 µM): 0.949
relative viability (Tipifarnib + Lapatinib; first compound 0.1 µM): 0.717
relative viability (Tipifarnib + Lapatinib; first compound 0.3162 µM): 0.439
relative viability (Tipifarnib + Lapatinib; first compound 1 µM): 0.23
relative viability (Tipifarnib + AZD7762; first compound 0.01 µM): 0.227
relative viability (Tipifarnib + AZD7762; first compound 0.03162 µM): 0.253
relative viability (Tipifarnib + AZD7762; first compound 0.1 µM): 0.229
relative viability (Tipifarnib + AZD7762; first compound 0.3162 µM): 0.236
relative viability (Tipifarnib + AZD7762; first compound 1 µM): 0.199
relative viability (Tipifarnib + Decitabine; first compound 0.01 µM): 0.333
relative viability (Tipifarnib + Decitabine; first compound 0.03162 µM): 0.349
relative viability (Tipifarnib + Decitabine; first compound 0.1 µM): 0.307
relative viability (Tipifarnib + Decitabine; first compound 0.3162 µM): 0.266
relative viability (Tipifarnib + Decitabine; first compound 1 µM): 0.281
